Results reported in the supplement of paper PMC12463676, “Small-molecule dissolution of stress granules by redox modulation benefits ALS models” (Nature Chemical Biology, 2025).

Experiments:
lipoamide = compound: NC(=O)CCCCC1CCSS1 [lipoamide]; assay: thermal stability z-score vs DMSO; higher = more thermally stabilized by treatment; details: HeLa, lipoamide concentration 100 µM
Protocol: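 Cellular thermal proteome profiling in HeLa cells. Cells were treated with 100 µM lipoamide for 1 h, with or without 1 mM arsenate for a further 1 h, then heated to ten temperatures (37-66.3 °C), and soluble protein was quantified by TMT mass spectrometry relative to 0.1% DMSO controls. The thermal stability score (sum of log2 fold changes minus the abundance score) was transformed to a z-score; mean of n = 3 experiments.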

potassium arsenate = compound: O=[As]([O-])(O)O.[K+] [potassium arsenate]; assay: as above; details: HeLa; arsenate concentration 1 mM
Protocol: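 Cellular thermal proteome profiling in HeLa cells treated with 1 mM arsenate for 1 h (DMSO pretreatment), heated to ten temperatures (37-66.3 °C). Soluble protein was quantified by TMT mass spectrometry relative to DMSO controls; the thermal stability score was transformed to a z-score; mean of n = 3 experiments.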

[1] = arsenate co-treatment: 1 mM arsenate 1 h
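Note: each temperature applied for 3 min, abundance score taken as mean log2 fold change at the two lowest temperatures, z-score obtained by mean subtraction and division by SD.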

UniProt Q9Y3A4, sequence (Q9Y3A4 whole entry): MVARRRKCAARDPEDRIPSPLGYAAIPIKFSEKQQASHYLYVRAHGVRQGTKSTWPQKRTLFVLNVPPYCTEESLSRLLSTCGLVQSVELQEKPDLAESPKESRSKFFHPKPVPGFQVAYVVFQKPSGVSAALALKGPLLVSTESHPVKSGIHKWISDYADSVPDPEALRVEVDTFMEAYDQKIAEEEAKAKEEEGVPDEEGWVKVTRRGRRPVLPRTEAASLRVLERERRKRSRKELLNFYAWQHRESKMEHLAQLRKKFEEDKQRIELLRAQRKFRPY
UniProt P51812, sequence (P51812 whole entry): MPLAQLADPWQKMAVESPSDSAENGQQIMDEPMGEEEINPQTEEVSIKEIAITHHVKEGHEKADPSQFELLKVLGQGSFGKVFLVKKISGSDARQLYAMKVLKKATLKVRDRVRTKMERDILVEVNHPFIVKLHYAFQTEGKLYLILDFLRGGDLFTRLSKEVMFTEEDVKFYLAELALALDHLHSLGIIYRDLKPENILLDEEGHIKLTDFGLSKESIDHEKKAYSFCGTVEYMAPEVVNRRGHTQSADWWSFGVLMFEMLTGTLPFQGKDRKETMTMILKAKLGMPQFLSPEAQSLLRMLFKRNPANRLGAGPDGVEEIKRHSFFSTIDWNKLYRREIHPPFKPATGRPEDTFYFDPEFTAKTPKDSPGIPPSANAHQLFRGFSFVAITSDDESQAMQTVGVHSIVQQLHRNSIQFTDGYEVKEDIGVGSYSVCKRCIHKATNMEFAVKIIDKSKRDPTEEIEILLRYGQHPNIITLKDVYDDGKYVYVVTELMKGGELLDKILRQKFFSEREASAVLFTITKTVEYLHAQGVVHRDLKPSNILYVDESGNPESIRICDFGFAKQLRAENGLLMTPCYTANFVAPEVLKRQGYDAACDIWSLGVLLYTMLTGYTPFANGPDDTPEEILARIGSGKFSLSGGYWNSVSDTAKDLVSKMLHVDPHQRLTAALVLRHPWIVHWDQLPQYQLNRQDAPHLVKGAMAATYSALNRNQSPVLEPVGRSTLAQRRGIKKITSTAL
UniProt Q14684, sequence (Q14684 whole entry): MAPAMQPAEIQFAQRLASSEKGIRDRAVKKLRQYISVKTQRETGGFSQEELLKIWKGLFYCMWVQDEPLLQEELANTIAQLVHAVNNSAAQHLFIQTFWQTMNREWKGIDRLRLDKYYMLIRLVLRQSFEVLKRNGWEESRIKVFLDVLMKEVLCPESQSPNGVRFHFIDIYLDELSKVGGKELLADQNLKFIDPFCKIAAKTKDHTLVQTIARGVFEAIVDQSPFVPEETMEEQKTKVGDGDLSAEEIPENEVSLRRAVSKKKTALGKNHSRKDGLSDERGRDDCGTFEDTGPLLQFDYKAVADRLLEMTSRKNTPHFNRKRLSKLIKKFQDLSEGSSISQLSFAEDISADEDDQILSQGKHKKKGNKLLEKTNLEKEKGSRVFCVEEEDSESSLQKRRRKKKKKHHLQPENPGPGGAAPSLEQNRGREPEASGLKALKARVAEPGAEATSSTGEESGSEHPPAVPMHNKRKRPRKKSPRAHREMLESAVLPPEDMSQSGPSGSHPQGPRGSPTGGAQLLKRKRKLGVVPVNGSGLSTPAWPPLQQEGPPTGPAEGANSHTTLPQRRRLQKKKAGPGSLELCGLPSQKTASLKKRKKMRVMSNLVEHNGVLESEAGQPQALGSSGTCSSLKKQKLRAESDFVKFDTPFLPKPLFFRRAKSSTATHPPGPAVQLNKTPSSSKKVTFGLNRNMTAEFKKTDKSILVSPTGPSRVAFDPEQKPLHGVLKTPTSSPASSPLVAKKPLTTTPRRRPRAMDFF
UniProt Q5VT52, sequence (Q5VT52 whole entry): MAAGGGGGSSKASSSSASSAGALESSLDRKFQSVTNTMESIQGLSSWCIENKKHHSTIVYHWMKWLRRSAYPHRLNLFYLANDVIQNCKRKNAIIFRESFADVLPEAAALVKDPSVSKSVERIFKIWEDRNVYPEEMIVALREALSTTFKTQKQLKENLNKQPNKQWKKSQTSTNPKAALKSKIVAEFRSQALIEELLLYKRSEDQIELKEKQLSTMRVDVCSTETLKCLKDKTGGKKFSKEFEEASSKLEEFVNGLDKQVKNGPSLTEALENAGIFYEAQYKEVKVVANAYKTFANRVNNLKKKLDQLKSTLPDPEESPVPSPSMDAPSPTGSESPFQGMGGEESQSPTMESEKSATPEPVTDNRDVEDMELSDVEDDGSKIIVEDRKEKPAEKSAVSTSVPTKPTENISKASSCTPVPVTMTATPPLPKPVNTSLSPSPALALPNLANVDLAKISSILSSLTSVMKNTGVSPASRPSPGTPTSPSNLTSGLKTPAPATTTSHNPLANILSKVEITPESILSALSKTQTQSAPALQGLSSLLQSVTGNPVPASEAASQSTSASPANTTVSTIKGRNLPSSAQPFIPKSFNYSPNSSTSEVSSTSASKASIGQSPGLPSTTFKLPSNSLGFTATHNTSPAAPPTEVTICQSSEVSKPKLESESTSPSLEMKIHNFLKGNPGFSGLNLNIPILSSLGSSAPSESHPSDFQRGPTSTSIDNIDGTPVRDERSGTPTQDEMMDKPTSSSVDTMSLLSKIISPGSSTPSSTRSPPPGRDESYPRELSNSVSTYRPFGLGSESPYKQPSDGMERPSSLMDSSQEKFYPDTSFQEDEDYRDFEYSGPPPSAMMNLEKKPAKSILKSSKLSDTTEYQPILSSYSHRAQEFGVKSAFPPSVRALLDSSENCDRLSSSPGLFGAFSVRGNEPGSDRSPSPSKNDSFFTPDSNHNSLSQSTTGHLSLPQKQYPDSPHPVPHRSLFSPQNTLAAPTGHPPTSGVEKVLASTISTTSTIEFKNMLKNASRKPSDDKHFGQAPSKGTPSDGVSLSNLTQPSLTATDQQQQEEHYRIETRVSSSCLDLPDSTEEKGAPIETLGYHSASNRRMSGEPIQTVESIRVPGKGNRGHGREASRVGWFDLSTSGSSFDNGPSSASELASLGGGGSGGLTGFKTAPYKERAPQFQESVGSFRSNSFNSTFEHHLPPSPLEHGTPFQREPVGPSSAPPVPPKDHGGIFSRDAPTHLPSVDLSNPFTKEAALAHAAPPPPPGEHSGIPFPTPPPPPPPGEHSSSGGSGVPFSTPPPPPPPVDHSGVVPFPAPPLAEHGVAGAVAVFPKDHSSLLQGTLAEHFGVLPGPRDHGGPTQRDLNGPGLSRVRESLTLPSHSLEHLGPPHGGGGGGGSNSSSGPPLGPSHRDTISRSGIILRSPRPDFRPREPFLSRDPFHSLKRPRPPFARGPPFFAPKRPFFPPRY
UniProt Q92600, sequence (Q92600 whole entry): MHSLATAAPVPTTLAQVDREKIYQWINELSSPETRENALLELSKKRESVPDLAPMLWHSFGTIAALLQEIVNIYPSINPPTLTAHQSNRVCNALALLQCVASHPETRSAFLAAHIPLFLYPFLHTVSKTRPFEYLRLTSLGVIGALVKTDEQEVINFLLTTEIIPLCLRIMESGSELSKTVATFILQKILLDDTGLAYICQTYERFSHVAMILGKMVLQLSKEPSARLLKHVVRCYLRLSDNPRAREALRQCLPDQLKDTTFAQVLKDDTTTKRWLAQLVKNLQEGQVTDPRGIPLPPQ
UniProt P10301, sequence (P10301 whole entry): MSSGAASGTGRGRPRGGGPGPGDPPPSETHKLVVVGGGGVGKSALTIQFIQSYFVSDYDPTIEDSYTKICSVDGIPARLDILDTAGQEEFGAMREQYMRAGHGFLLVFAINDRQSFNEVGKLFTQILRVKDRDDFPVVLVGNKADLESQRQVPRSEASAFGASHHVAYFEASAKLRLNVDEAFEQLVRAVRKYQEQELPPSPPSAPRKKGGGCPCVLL
UniProt Q8IZ73, sequence (Q8IZ73 whole entry): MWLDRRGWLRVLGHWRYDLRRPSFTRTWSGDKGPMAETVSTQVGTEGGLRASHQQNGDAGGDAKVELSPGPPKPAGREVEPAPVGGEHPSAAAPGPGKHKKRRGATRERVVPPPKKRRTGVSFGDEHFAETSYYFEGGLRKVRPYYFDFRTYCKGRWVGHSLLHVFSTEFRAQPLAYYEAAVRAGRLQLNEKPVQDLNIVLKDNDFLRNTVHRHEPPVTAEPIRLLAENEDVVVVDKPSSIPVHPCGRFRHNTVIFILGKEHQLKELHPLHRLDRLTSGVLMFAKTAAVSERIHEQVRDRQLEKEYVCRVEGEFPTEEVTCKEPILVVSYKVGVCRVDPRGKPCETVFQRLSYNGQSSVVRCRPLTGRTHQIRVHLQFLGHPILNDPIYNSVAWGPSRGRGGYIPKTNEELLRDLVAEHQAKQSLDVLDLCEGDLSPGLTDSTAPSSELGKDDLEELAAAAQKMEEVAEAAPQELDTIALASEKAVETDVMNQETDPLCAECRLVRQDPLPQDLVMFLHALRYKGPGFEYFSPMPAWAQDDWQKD
UniProt Q15418, sequence (Q15418 whole entry): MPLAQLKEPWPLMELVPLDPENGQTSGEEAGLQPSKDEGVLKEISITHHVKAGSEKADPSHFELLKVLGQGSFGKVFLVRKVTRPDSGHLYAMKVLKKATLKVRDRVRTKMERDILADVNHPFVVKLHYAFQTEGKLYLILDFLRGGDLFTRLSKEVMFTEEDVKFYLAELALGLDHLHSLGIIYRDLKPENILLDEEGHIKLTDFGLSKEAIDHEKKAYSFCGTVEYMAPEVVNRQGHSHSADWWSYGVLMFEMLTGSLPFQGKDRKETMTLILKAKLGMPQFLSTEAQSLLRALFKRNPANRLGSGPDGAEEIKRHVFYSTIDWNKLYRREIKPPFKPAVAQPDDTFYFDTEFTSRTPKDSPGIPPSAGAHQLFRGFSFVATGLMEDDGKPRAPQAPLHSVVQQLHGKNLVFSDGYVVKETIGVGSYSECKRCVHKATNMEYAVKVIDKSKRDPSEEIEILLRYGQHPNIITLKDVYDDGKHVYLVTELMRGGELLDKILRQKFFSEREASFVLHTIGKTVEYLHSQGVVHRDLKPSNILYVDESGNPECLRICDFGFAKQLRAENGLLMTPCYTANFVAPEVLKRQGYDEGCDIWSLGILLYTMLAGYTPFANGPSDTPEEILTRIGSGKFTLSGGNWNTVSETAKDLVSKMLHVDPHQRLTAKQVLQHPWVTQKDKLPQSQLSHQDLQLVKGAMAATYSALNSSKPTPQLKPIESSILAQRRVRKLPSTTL

Target	thermal stability z-score (lipoamide; [1])	thermal stability z-score (lipoamide; arsenate co-treatment: none)	thermal stability z-score (potassium arsenate)
RPRD1B (UniProt Q9NQG5)	0.793	0.977	0.808
RPRD2 (UniProt Q5VT52)	1.99	1.64	0.719
RPS2 (UniProt P15880)	0.307	0.259	-0.532
RPS3 (UniProt P23396)	0.354	0.207	-0.627
RPS3A (UniProt P61247)	0.23	0.114	-0.818
RPS4X (UniProt P62701)	0.35	0.0222	-0.997
RPS5 (UniProt P46782)	0.607	0.458	-0.546
RPS6 (UniProt P62753)	1.06	0.834	-0.404
RPS6KA1 (UniProt Q15418)	-0.0567	-0.413	0.0783
RPS6KA3 (UniProt P51812)	-0.607	-0.345	0.388
RPS6KA4 (UniProt O75676)	-0.327	-0.0905	0.0157
RPS6KB1 (UniProt P23443)	-0.0619	0.679	0.138
RPS6KB2 (UniProt Q9UBS0)	0.0955	0.0989	-0.0668
RPS6KC1 (UniProt Q96S38)	-0.161	-0.151	-0.393
RPS7 (UniProt P62081)	0.514	0.322	-0.493
RPS8 (UniProt P62241)	0.378	0.0867	-0.848
RPS9 (UniProt P46781)	0.28	0.125	-1.03
RPS10 (UniProt P46783)	0.895	0.406	-0.422
RPS11 (UniProt P62280)	0.621	0.352	-1.11
RPS12 (UniProt P25398)	0.613	0.884	-0.949
RPS13 (UniProt P62277)	0.784	0.463	-1.11
RPS14 (UniProt P62263)	0.641	0.21	-0.926
RPS15 (UniProt P62841)	0.148	0.282	-0.957
RPS15A (UniProt P62244)	0.437	0.494	-0.776
RPS16 (UniProt P62249)	1.04	0.549	-0.329
RPS17 (UniProt P08708)	0.31	-0.0463	-0.614
RPS18 (UniProt P62269)	0.389	0.214	-0.81
RPS19 (UniProt P39019)	0.104	0.15	-1.03

Target	thermal stability z-score (lipoamide; [1])	thermal stability z-score (lipoamide; arsenate co-treatment: none)	thermal stability z-score (potassium arsenate)
RPS19BP1 (UniProt Q86WX3)	-0.305	-0.278	-0.522
RPS20 (UniProt P60866)	1.14	1.14	-0.0402
RPS21 (UniProt P63220)	0.253	0.512	-0.196
RPS23 (UniProt P62266)	-0.0441	0.207	-0.0437
RPS24 (UniProt P62847)	0.103	-0.101	-0.971
RPS25 (UniProt P62851)	0.792	0.586	-0.573
RPS26 (UniProt P62854)	0.0208	0.263	-0.743
RPS27A (UniProt P62979)	0.106	-0.431	-1.18
RPS28 (UniProt P62857)	0.574	0.243	-0.0195
RPS29 (UniProt P62273)	1.14	1.17	-0.415
RPSA (UniProt P08865)	0.555	0.847	-1.42
RPTOR (UniProt Q8N122)	0.0585	0.132	0.227
RPUSD2 (UniProt Q8IZ73)	-0.528	0.461	0.29
RPUSD3 (UniProt Q6P087)	0.12	0.0857	0.085
RPUSD4 (UniProt Q96CM3)	-0.196	-1.67	-0.998
RQCD1 (UniProt Q92600)	-0.57	-0.143	0.74
RRAGC (UniProt Q9HB90)	0.182	-0.182	-0.786
RRAS2 (UniProt P62070)	0.129	0.0499	0.544
RRAS (UniProt P10301)	0.632	0.351	0.844
RRBP1 (UniProt Q9P2E9)	0.226	0.25	-0.458
RRM1 (UniProt P23921)	0.219	0.204	0.11
RRM2 (UniProt P31350)	0.385	0.731	0.674
RRM2B (UniProt Q7LG56)	0.945	0.415	-0.703
RRN3 (UniProt Q9NYV6)	-0.321	-0.104	-2.42
RRP1 (UniProt P56182)	0.0258	0.131	0.671
RRP1B (UniProt Q14684)	0.131	0.133	-0.0634
RRP7A (UniProt Q9Y3A4)	0.108	-0.213	-0.216
